pIC50: −log10 of the molar value. Read-outs that look alike come from different tables or passages of the source.
Experiments:
DBA/2 mice = test: In vivo anticonvulsant activity, sound-induced tonic seizures in DBA/2 mice; conditions: tested 15 or 45 minutes after injection; for DBA/2 mice % Protection (10 mg/kg): 10 mg/kg intravenous; for DBA/2 mice % Protection dose @ 30 mg/kg: 30 mg/kg intravenous
Protocol: A compound of the present invention was dissolved in water using 10% (weight/volume) Emulphor (GAF Corp., Wayne, N.J.) surfactant. Substances were administered by intravenous injection into the retro-orbital venous sinus. All testing was performed 15 minutes or 45 minutes after drug injection. All the male mice, 3-4 weeks old were obtained from Jackson Laboratories Bar Harbour, Me. Immediately before anticonvulsant testing, mice were placed upon a wire mesh, 4 inches square suspended from a steel rod. The square was slowly inverted through 180 degrees and mice observed for 30 seconds. Any mouse falling from the wire mesh was scored as ataxia.
Mice were placed into an enclosed acrylic plastic chamber (21 cm height, approximately 30 cm diameter) with a high-frequency speaker (4 cm diameter) in the center of the top lid. An audio signal generator (Protek model B-810) was used to produce a continuous sinusoidal tone that was swept linearly in frequency between 8 kHz and 16 kHz once each 10 msec. The average sound pressure level (SPL) during stimulation was approximately 100 dB at the floor of the chamber. Mice were placed within the chamber and allowed to acclimatize for 1 minute. DBA/2 mice in the vehicle-treated group responded to the sound stimulus (applied until tonic extension occurred, or for a maximum of 60 sec) with a characteristic seizure sequence consisting of wild running followed by clonic seizures, and later by tonic extension, and finally by respiratory arrest and death in 80% or more of the mice. In vehicle-treated mice, the entire sequence of seizures to respiratory arrest lasts approximately 15-20 seconds.
The incidence of all the seizure phases in the drug-treated and vehicle-treated mice was recorded, and the occurrence of tonic seizures were used for calculatine anticonvulsant ED50 values by probit analysis. Mice were used only once for testing at each time and dose point.

N-type Ca^2+ Channel = biological target: T1, N-type Ca^2+ Channel (Homo sapiens, UniProt Q00975); test: Measurement of N-type Ca2+ channel blocking potencies in IMR-32 cells using the fluorescent Ca2+ indicator Indo-1; type: cell-based; conditions: for pIC50: IMR-32 cells
T1 construct: host or cells: IMR-32 cells differentiated with dibutyryl cAMP and bromodeoxyuridine
T1 sequence (Q00975 whole entry): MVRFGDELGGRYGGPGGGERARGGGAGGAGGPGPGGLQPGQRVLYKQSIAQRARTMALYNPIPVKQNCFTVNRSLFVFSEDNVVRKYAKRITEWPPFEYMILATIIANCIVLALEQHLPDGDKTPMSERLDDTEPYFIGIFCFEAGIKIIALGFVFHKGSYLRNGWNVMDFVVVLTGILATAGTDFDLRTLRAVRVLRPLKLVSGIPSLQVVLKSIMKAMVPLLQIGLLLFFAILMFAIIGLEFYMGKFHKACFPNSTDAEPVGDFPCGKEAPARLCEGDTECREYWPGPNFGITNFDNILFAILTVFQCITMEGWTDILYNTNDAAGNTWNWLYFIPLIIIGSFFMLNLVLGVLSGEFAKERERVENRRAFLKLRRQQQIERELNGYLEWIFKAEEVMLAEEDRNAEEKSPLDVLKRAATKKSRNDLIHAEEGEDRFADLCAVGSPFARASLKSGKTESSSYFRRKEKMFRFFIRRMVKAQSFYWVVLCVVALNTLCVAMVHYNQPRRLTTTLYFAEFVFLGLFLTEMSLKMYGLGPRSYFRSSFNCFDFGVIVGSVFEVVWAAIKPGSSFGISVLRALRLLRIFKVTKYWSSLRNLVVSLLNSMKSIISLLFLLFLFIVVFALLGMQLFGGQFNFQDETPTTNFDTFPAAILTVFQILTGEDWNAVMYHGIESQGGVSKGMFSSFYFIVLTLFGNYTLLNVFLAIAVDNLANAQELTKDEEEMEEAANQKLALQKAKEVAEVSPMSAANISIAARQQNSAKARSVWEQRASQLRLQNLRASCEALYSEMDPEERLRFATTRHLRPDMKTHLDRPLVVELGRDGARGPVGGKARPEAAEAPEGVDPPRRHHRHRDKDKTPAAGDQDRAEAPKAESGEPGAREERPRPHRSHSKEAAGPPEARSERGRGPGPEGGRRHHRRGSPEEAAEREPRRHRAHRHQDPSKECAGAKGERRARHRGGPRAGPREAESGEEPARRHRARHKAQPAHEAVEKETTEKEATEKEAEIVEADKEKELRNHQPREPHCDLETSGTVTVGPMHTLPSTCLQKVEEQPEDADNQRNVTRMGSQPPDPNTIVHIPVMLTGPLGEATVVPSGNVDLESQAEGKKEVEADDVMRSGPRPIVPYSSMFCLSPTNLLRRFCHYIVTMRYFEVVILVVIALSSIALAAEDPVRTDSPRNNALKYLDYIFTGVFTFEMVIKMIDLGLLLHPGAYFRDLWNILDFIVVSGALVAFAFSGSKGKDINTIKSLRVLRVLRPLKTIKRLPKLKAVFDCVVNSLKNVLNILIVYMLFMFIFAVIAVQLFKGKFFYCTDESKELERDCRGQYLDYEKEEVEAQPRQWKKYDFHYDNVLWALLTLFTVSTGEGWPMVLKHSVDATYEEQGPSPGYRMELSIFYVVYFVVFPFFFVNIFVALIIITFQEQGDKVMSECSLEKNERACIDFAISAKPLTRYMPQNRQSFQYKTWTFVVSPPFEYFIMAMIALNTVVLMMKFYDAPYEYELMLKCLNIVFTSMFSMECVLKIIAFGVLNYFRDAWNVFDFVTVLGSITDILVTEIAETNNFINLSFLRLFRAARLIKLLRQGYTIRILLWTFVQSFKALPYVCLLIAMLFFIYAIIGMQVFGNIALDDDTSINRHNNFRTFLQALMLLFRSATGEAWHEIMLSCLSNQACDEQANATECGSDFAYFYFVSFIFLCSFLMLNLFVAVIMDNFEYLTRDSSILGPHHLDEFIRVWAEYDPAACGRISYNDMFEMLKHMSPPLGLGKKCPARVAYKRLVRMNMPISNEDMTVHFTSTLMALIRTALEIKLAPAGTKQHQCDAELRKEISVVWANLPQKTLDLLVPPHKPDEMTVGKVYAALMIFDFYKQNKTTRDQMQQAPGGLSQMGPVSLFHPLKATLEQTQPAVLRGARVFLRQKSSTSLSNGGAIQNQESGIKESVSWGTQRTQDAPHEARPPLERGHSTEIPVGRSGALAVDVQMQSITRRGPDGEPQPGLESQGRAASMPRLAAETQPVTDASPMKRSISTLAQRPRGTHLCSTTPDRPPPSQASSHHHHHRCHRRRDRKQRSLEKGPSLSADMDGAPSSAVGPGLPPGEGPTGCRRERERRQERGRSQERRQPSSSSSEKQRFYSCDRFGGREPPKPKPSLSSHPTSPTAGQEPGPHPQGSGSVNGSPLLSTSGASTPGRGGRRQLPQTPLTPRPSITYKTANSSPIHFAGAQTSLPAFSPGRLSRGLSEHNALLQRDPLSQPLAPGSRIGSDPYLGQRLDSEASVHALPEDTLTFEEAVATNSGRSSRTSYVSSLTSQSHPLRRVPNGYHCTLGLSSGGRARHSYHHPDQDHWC
T1 sequence (P54284 whole entry partner): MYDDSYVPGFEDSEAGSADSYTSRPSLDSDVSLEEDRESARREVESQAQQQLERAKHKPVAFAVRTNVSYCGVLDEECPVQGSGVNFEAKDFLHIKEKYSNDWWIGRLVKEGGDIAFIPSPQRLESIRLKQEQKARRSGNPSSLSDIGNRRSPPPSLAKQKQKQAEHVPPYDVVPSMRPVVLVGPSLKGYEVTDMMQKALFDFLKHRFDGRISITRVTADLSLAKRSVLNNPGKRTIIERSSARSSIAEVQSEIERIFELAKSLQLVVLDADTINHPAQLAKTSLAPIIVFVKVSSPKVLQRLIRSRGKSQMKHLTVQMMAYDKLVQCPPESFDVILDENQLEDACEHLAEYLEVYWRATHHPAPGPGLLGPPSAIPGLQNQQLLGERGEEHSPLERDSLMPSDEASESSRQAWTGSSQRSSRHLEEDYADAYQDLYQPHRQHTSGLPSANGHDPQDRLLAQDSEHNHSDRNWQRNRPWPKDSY
T1 sequence (P54289 25-946 partner limits assumed): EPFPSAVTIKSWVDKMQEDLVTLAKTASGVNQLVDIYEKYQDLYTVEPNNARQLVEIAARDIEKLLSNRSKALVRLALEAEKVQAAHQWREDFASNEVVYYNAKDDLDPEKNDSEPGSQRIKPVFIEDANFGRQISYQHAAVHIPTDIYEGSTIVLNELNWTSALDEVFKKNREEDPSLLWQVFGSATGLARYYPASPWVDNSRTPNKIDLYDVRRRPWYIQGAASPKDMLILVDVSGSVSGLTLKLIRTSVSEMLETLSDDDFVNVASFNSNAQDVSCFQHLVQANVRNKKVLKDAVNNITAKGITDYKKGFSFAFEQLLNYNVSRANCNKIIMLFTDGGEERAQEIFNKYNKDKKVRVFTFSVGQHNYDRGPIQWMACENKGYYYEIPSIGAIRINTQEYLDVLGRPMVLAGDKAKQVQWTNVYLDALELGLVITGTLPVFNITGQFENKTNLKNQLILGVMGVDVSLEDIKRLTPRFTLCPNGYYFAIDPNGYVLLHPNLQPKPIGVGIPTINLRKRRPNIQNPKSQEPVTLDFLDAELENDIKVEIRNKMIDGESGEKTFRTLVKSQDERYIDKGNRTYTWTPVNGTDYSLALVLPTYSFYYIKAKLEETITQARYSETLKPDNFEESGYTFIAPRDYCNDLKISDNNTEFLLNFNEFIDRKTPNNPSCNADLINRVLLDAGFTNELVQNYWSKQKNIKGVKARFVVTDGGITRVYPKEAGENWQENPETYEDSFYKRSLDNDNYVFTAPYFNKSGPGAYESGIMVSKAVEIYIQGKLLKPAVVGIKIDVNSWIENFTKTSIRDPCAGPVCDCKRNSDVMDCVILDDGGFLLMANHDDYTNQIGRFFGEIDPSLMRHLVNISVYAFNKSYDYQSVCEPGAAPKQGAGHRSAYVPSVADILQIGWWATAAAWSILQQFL
T1 sequence (P54289 947-1103 partner limits assumed): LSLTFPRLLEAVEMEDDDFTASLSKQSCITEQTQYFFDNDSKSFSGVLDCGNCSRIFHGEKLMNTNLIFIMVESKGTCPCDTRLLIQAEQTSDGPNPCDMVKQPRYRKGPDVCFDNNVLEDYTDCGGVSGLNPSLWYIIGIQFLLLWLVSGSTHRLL
In short: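 IMR-32 cells were differentiated 7–13 days (1 mM dibutyryl cAMP, 2.5 µM BrdU) and Indo-1-loaded. They were preincubated 10 min at 30 °C with compound and 5 µM nitrendipine in HEPES/Tris pH 7.4 HBSS with 0.5% BSA, then KCl/CaCl2-depolarized. The peak-minus-basal 400/490 nm emission ratio gave IC50 by four-parameter logistic fit.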

[1] = K+ depolarization, 5 μM nitrendipine to block L-type channels, read-out: IMR 32 IC50
[2] = 5 μM nitrendipine, Examples 116-140, read-out: IMR 32% of Blockade @

Compound | pIC50 (N-type Ca^2+ Channel; [1]) | DBA/2 mice % Protection dose @ 30 mg/kg (DBA/2 mice) | further results
CCC(C)N(C)C(CC(C)C)C(=O)NC(Cc1ccc(OCc2ccccc2)cc1)C(=O)NC(C)(C)C (racemic) [Example 103, [S-[R*,R*,(RS)]]-2-(sec-Butyl-methyl-amino)-4-methyl-pentanoic acid [2-(4-benzyloxy-phenyl)-1-tert-butylcarbamoyl-ethyl]-amide] | 5.82 |  | DBA/2 mice % Protection (10 mg/kg) (DBA/2 mice): 100%
CC(C)CCN(C)[C@@H](CC(C)C)C(=O)N[C@@H](Cc1ccc(OCc2ccccc2)cc1)C(=O)NC(C)(C)C (relative stereo) [Example 7, [S-(R*,R*)]-4-Methyl-2-[methyl-(3-methyl-butyl)-amino]-pentanoic acid [2-(4-benzyloxy-phenyl)-1-tert-butylcarbamoyl-ethyl]-amide] | 6.49 | 100% | 
CC(C)C[C@@H](C(=O)N[C@@H](Cc1ccc(OCc2ccccc2)cc1)C(=O)NC(C)(C)C)N(C)CC1CCCCC1 (relative stereo) [Example 25, [S-(R*,R*)]-2-(Cyclohexylmethyl-methyl-amino)-4-methyl-pentanoic acid [2-(4-benzyloxy-phenyl)-1-tert-butylcarbamoyl-ethyl]-amide] | 6.17 | 100% | 
CC(C)CCN(C)[C@@H](CC(C)C)C(=O)N[C@H](Cc1ccc(OCc2ccccc2)cc1)C(=O)NC(C)(C)C (relative stereo) [Example 84, [S-(R*,S*)]-4-Methyl-2-[methyl-(3-methyl-butyl)-amino]-pentanoic acid [2-(4-benzyloxy-phenyl)-1-tert-butylcarbamoyl-ethyl]-amide] | 6.43 |  | DBA/2 mice % Protection (10 mg/kg) (DBA/2 mice): 100%
CC(C)C[C@@H](C(=O)N[C@@H](Cc1ccc(OCc2ccccc2)cc1)C(=O)NC(C)(C)C)N(C)Cc1ccco1 (relative stereo) [Example 90, [S-(R*,R*)]-2-(Furan-2-ylmethyl-methyl-amino)-4-methyl-pentanoic acid [2-(4-benzyloxy-phenyl)-1-tert-butylcarbamoyl-ethyl]-amide] | 6.05 | 60% | 
CC(C)C[C@H](NC1CCCCC1)C(=O)N[C@@H](Cc1ccc(OCc2ccccc2)cc1)C(=O)OC(C)(C)C (relative stereo) [Example 93, [S-(R*,R*)]-3-(4-Benzyloxy-phenyl)-2-(2-cyclohexylamino-4-methyl-pentanoylamino)-propionic acid tert-butyl ester] | 6.70 | 80% | 
CC(C)C[C@@H](C(=O)N[C@@H](Cc1ccc(OCc2ccccc2)cc1)C(=O)NC(C)(C)C)N(C)CCC(C)O (relative stereo) [Example 97, [S-(R*,R*)]-2-[(3-Hydroxy-butyl)-methyl-amino]-4-methyl-pentanoic acid [2-(4-benzyloxy-phenyl)-1-tert-butylcarbamoyl-ethyl]-amide] | 5.66 | 40% | 
CC(C)CC(C(=O)NC(Cc1ccc(OCc2ccccc2)cc1)C(=O)NC(C)(C)C)N(C)Cc1ccc(C(C)(C)C)cc1 (stereo not drawn) [Example 13, [S-(R*,R*)]-2-[(4-tert-Butyl-benzyl)-methyl-amino]-4-methyl-pentanoic acid [2-(4-benzyloxy-phenyl)-1-tert-butylcarbamoyl-ethyl]-amide] | 7.40 | 60% | 
CC(C)=CCNC(CC(C)C)C(=O)NC(Cc1ccc(OCc2ccccc2)cc1)C(=O)OC(C)(C)C (stereo not drawn) [Example 31, [S-(R*,R*)]-3-(4-Benzyloxy-phenyl)-2-[4-methyl-2-(3-methyl-but-2-enylamino)-pentanoylamino]-propionic acid tert-butyl ester] | 6.49 | 100% | 
CC(C)CC(C(=O)NC(Cc1ccc(OCc2ccccc2)cc1)C(=O)NC(C)(C)C)N(C)C1C=CCCC1 (stereo not drawn) [Example 47, [S-(R*,R*)]-2-(Cyclohex-2-enyl-methyl-amino)-4-methyl-pentanoic acid [2-(4-benzyloxy-phenyl)-1-tert-butylcarbamoyl-ethyl]-amide] | 6.55 | 100% | 
CC(C)CC(NC(C)C)C(=O)NC(Cc1ccc(OCc2ccccc2)cc1)C(=O)OC(C)(C)C (stereo not drawn) [Example 92, [S-(R*,R*)]-3-(4-Benzyloxy-phenyl)-2-(2-isopropylamino4-methyl-pentanoylamino)-propionic acid tert-butyl ester] | 6.10 | 100% | 
[S-(R*,R*)]-3-Methyl-2-[methyl-(3-methyl-butyl)-amino]-pentanoic acid [2-(4-benzyloxy-phenyl)-1-tert-butylcarbamoyl-ethyl]-amide [Example 44] |  |  | IMR 32 % of Blockade @ 0.3 μM (N-type Ca^2+ Channel): 35%; IMR 32 % of Blockade @ 3 μM (N-type Ca^2+ Channel): 74%
[S-(R*,R*)]-4-Methyl-2-(tetrahydropyran-4-yl-amino)-pentanoic acid [2-(4-benzyloxy-phenyl)-1-(2-pyrrolidine-1-yl-ethylcarbamoyl]-amide [Example 130] |  |  | pIC50 (N-type Ca^2+ Channel; [2]): 5.19
[S-(R*,R*)]-4-Methyl-2-(tetrahydropyran-4-yl-amino)-pentanoic acid [2-(4-benzyloxy-phenyl)-1-(4-hydroxy-piperinylcarbamoyl]-amide [Example 131] |  |  | pIC50 (N-type Ca^2+ Channel; [2]): 5.00
[S-(R*,R*)]-4-Methyl-2-(tetrahydropyran-4-yl-amino)-pentanoic acid [2-(4-benzyloxy-phenyl)-1-(-(2-pyridin-2-yl-ethylcarbamoyl)-ethyl]-amide [Example 128] |  |  | pIC50 (N-type Ca^2+ Channel; [2]): 5.41

From US6117841A, “Substituted peptidylamine calcium channel blockers” (Warner-Lambert Company, priority 1999, dated 2000)
